EC50 data for 24 molecules are collected here from patent US11820773B2, “Tricyclic compounds” (ALIGOS THERAPEUTICS, INC., priority 2020, dated 2023).

By EC50 is commonly meant the concentration giving half of the maximal effect.

SMILES strings stand for the structures.

For one experiment, the system named is HBV. The experiment is described as follows: HBV-DNA antiviral assay using HepG2.117 cells (intracellular HBV DNA by qPCR). Format: cell-based, genotype D HBV. Conditions: HBV DNA inhibition, 3 days incubation, 2% DMSO. The gist of the method: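 Endpoints are intracellular HBV DNA by qPCR (interpolated from a gBlock standard curve) and ATP-based viability in duplicate plates. Doxycycline-free HepG2.117 Tet-off cells received compounds (9 concentrations, 4-fold steps, 2% DMSO) for 3 days. Inhibition normalised to DMSO wells; EC50/EC90/CC50 by curve fitting.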
(Real-time PCR tracks product formation cycle by cycle.)
In turn, `CNC(=O)c1ccc(-n2c(=O)c3c(n4ncc(Cc5ccccc5)c24)CN(C(=O)c2ccc(Br)c(C(F)(F)F)c2)CC3)cc1` [Compound 4, 4-[5-benzyl-12-[4-bromo-3-(trifluoromethyl)benzoyl]-8-oxo-2,3,7,12-tetrazacyclo[7.4.0.0^2,6]trideca-1(9),3,5-trien-7-yl]-N-methyl-benzamide] registered an EC50 of less than 50 nM.
For `CNc1onc2cc(-n3c(=O)c4c(n5ncc(Cc6ccccc6)c35)CN(C(=O)c3ccc(Br)c(Cl)c3)CC4)ccc12` [Compound 6, 5-benzyl-12-(4-bromo-3-chloro-benzoyl)-7-[3-(methylamino)-2,1-benzoxazol-6-yl]-2,3,7,12-tetrazatricyclo[7.4.0.0^2,6]trideca-1(9),3,5-trien-8-one], the EC50 was less than 50 nM.
On to `Cn1cnnc1-c1ccc(-n2c(=O)c3c(n4ncc(Cc5ccccc5)c24)CN(C(=O)c2ccc(Br)c(Cl)c2)CC3)cc1` [Compound 9, 5-benzyl-12-(4-bromo-3-chloro-benzoyl)-7-[4-(4-methyl-1,2,4-triazol-3-yl)phenyl]-2,3,7,12-tetrazatricyclo[7.4.0.0^2,6]trideca-1(9),3,5-trien-8-one], for which the half-maximal effective concentration (EC50) is less than 50 nM.
Same read-out and setting: the value for `Cn1nnc(-c2ccc(-n3c(=O)c4c(n5ncc(Cc6ccccc6)c35)CN(C(=O)c3ccc(Br)c(Cl)c3)CC4)cc2)n1` [Compound 10, 5-benzyl-12-(4-bromo-3-chloro-benzoyl)-7-[4-(2-methyltetrazol-5-yl)phenyl]-2,3,7,12-tetrazatricyclo[7.4.0.0^2,6]trideca-1(9),3,5-trien-8-one] was less than 50 nM.
For `CNC(=O)c1ccc(-n2c(=O)c3c(n4ncc(CC5CCCC5)c24)CN(C(=O)c2ccc(Br)c(Cl)c2)CC3)cc1` [Compound 11, 4-[12-(4-bromo-3-chloro-benzoyl)-5-(cyclopentylmethyl)-8-oxo-2,3,7,12-tetrazatricyclo[7.4.0.0^2,6]trideca-1(9),3,5-trien-7-yl]-N-methyl-benzamide], the EC50 is less than 50 nM.

The experiment is the same for the next values; noted with them: Hepatitis B virus, 72 h, HBV DNA inhibition, 3 days incubation, 2% DMSO.
Consider `C[C@H]1Cc2c(n3ncc(Cc4ccccc4)c3n(-c3ccc(-c4cnnn4C)cc3)c2=O)CN1C(=O)c1ccc(Br)c(C(F)(F)F)c1` (stereo in doubt) [Compound 105b, rac-(11S)-5-benzyl-12-[4-bromo-3-(trifluoromethyl)benzoyl]-11-methyl-7-[4-(3-methyltriazol-4-yl)phenyl]-2,3,7,12-tetrazatricyclo[7.4.0.0^2,6]trideca-1(9),3,5-trien-8-one], for which the half-maximal effective concentration (EC50) fell in the range of 50 to 500 nM.
The molecule `CC(C)Cc1cnn2c3c(c(=O)n(-c4ccc5c(c4)nnn5CCO)c12)C[C@@H](C)N(C(=O)c1ccc(Br)c(C(F)(F)F)c1)C3` (stereo in doubt) [Compound 108a, rac-(11R)-12-[4-bromo-3-(trifluoromethyl)benzoyl]-7-[1-(2-hydroxyethyl)benzotriazol-5-yl]-5-isobutyl-11-methyl-2,3,7,12-tetrazatricyclo[7.4.0.0^2,6]trideca-1(9),3,5-trien-8-one] returned an EC50 of less than 50 nM.
The same measure, in the same setting: for `CC(C)Cc1cnn2c3c(c(=O)n(-c4ccc5c(c4)nnn5CCO)c12)C[C@H](C)N(C(=O)c1ccc(Br)c(C(F)(F)F)c1)C3` (stereo in doubt) [Compound 108b, rac-(11S)-12-[4-bromo-3-(trifluoromethyl)benzoyl]-7-[1-(2-hydroxyethyl)benzotriazol-5-yl]-5-isobutyl-11-methyl-2,3,7,12-tetrazatricyclo[7.4.0.0^2,6]trideca-1(9),3,5-trien-8-one] the value was 50 to 500 nM; for `CNC(=O)c1ccc(-n2c(=O)c3c(n4ncc(Cc5ccccc5)c24)CN(C(=O)c2ccc(Br)c(C(F)(F)F)c2)[C@H](C)C3)nc1` (stereo in doubt) [Compound 109a, N-methyl-6-[rac-(11R)-5-benzyl-12-[4-bromo-3-(trifluoromethyl)benzoyl]-11-methyl-8-oxo-2,3,7,12-tetrazatricyclo[7.4.0.0^2,6]trideca-1(9),3,5-trien-7-yl]pyridine-3-carboxamide], 50 to 500 nM; for `CNC(=O)c1ccc(-n2c(=O)c3c(n4ncc(Cc5ccccc5)c24)CN(C(=O)c2ccc(Br)c(C(F)(F)F)c2)[C@@H](C)C3)nc1` (stereo in doubt) [Compound 109b, N-methyl-6-[rac-(11S)-5-benzyl-12-[4-bromo-3-(trifluoromethyl)benzoyl]-11-methyl-8-oxo-2,3,7,12-tetrazatricyclo[7.4.0.0^2,6]trideca-1(9),3,5-trien-7-yl]pyridine-3-carboxamide], less than 50 nM.
`Cc1nnc(-c2ccc(-n3c(=O)c4c(n5ncc(Cc6ccccc6)c35)CN(C(=O)c3ccc(Br)c(Cl)c3)CC4)cc2)[nH]1` [Compound 1, 5-benzyl-12-(4-bromo-3-chloro-benzoyl)-7-[4-(5-methyl-4H-1,2,4-triazol-3-yl)phenyl]-2,3,7,12-tetrazatricyclo[7.4.0.0^2,6]trideca-1(9),3,5-trien-8-one] registered an EC50 of less than 50 nM.
As to `CNC(=O)c1ccc(-n2c(=O)c3c(n4ncc(Cc5ccccc5)c24)CN(C(=O)c2ccc(Br)c(C)c2)CC3)cc1` [Compound 2, 4-[5-benzyl-12-(4-bromo-3-methyl-benzoyl)-8-oxo-2,3,7,12-tetrazatricyclo[7.4.0.0″2,6]trideca-1(9),3,5-trien-7-yl]-N-methyl-benzamide], the concentration giving a half-maximal response (EC50) was less than 50 nM.
`CNC(=O)c1ccc(-n2c(=O)c3c(n4ncc(Cc5ccccc5)c24)CN(C(=O)c2ccc(Br)c(C(F)F)c2)CC3)cc1` [Compound 3, 4-[5-benzyl-12-[4-bromo-3-(difluoromethyl)benzoyl]-8-oxo-2,3,7,12-tetrazatricyclo[7.4.0.0^2,6]trideca-1(9),3,5-trien-7-yl]-N-methyl-benzamide] yielded a half-maximal effective concentration (EC50) of less than 50 nM.
Still for that read-out and setting: for `CNc1nsc2cc(-n3c(=O)c4c(n5ncc(Cc6ccccc6)c35)CN(C(=O)c3ccc(Br)c(Cl)c3)CC4)ccc12` [Compound 5, 5-benzyl-12-(4-bromo-3-chloro-benzoyl)-7-[3-(methylamino)-1,2-benzothiazol-6-yl]-2,3,7,12-tetrazatricyclo[7.4.0.0^2,6]trideca-1(9),3,5-trien-8-one] the value was less than 50 nM; for `Cc1cnn(-c2ccc(-n3c(=O)c4c(n5ncc(Cc6ccccc6)c35)CN(C(=O)c3ccc(Br)c(Cl)c3)CC4)cc2)c1` [Compound 7, 5-benzyl-12-(4-bromo-3-chloro-benzoyl)-7-[4-(4-methylpyrazol-1-yl)phenyl]-2,3,7,12-tetrazatricyclo[7.4.0.0^2,6]trideca-1(9),3,5-trien-8-one], less than 50 nM; for `Cn1nnnc1-c1ccc(-n2c(=O)c3c(n4ncc(Cc5ccccc5)c24)CN(C(=O)c2ccc(Br)c(Cl)c2)CC3)cc1` [Compound 8, 5-benzyl-12-(4-bromo-3-chloro-benzoyl)-7-[4-(1-methyltetrazol-5-yl)phenyl]-2,3,7,12-tetrazatricyclo[7.4.0.0^2,6]trideca-1(9),3,5-trien-8-one], less than 50 nM.
On the same count and under the same terms, for `Cc1ccnn1-c1ccc(-n2c(=O)c3c(n4ncc(Cc5ccccc5)c24)CN(C(=O)c2ccc(Br)c(Cl)c2)CC3)cc1` [Compound 12, 5-benzyl-12-(4-bromo-3-chloro-benzoyl)-7-[4-(5-methylpyrazol-1-yl)phenyl]-2,3,7,12-tetrazatricyclo[7.4.0.0^2,6]trideca-1(9),3,5-trien-8-one] the value was less than 50 nM; for `O=C(c1ccc(Br)c(Cl)c1)N1CCc2c(n3ncc(Cc4ccccc4)c3n(-c3ccc(-n4ccc(C(F)(F)F)n4)cc3)c2=O)C1` [Compound 13, 5-benzyl-12-(4-bromo-3-chloro-benzoyl)-7-[4-[3-(trifluoromethyl)pyrazol-1-yl]phenyl]-2,3,7,12-tetrazatricyclo[7.4.0.0^2,6]trideca-1(9),3,5-trien-8-one], 50 to 500 nM; for `CNC(=O)c1ccc(-n2c(=O)c3c(n4ncc(CC5CCC5)c24)CN(C(=O)c2ccc(Br)c(Cl)c2)CC3)cc1` [Compound 14, 4-[12-(4-bromo-3-chloro-benzoyl)-5-(cyclobutylmethyl)-8-oxo-2,3,7,12-tetrazatricyclo[7.4.0.0^2,6]trideca-1(9),3,5-trien-7-yl]-N-methyl-benzamide], less than 50 nM.
On to `CN1Cc2cc(-n3c(=O)c4c(n5ncc(Cc6ccccc6)c35)CN(C(=O)c3ccc(Br)c(Cl)c3)CC4)ccc2C1=O` [Compound 15, 5-benzyl-12-(4-bromo-3-chloro-benzoyl)-7-(2-methyl-1-oxo-isoindolin-5-yl)-2,3,7,12-tetrazatricyclo[7.4.0.0^2,6]trideca-1(9),3,5-trien-8-one], for which the EC50 was less than 50 nM.
`CNC(=O)c1ccc(-n2c(=O)c3c(n4ncc(CC5CCC5)c24)CN(C(=O)c2ccc(Br)c(C(F)(F)F)c2)CC3)cc1` [Compound 16, 4-[12-[4-bromo-3-(trifluoromethyl)benzoyl]-5-(cyclobutylmethyl)-8-oxo-2,3,7,12-tetrazatricyclo[7.4.0.0^2,6]trideca-1(9),3,5-trien-7-yl]-N-methyl-benzamide]: the EC50 was less than 50 nM.
Turning to `CNC(=O)c1ccc(-n2c(=O)c3c(n4ncc(CC5CCOC5)c24)CN(C(=O)c2ccc(Br)c(Cl)c2)CC3)cc1` (stereo not drawn) [Compound 17, 4-[12-(4-bromo-3-chloro-benzoyl)-8-oxo-5-(tetrahydrofuran-3-ylmethyl)-2,3,7,12-tetrazatricyclo[7.4.0.0^2,6]trideca-1(9),3,5-trien-7-yl]-N-methyl-benzamide], the EC50 is less than 50 nM.
Take `CNC(=O)c1ccc(-n2c(=O)c3c(n4ncc(Cc5ccsc5)c24)CN(C(=O)c2ccc(Br)c(Cl)c2)CC3)cc1` [Compound 18, 4-[12-(4-bromo-3-chloro-benzoyl)-8-oxo-5-(3-thienylmethyl)-2,3,7,12-tetrazatricyclo[7.4.0.0^2,6]trideca-1(9),3,5-trien-7-yl]-N-methyl-benzamide]: the half-maximal effective concentration (EC50) is less than 50 nM.
Consider `CNC(=O)c1ccc(-n2c(=O)c3c(n4ncc(CC5CC(F)(F)C5)c24)CN(C(=O)c2ccc(Br)c(Cl)c2)CC3)cc1` [Compound 19, 4-[12-(4-bromo-3-chloro-benzoyl)-5-[(3,3-difluorocyclobutyl)methyl]-8-oxo-2,3,7,12-tetrazatricyclo[7.4.0.0^2,6]trideca-1(9),3,5-trien-7-yl]-N-methyl-benzamide], for which the EC50 fell in the range of 50 to 500 nM.
